Data from patent US20090270447A1, “2-Aryl-and 2-Heteroarylthiazolyl Compounds, Methods for Their Preparation and Use Thereof” (Wyeth, priority 2008, published 2009).

Columns and labels:
[1] = test system: HCT116 cells (Securin+/+, securin parental cell line HCT116 FB); assay: Growth inhibition of securin parental cells (SRB, 5 days); format: cell-based; conditions: Homo sapiens, HCT-116, 120 h
Experimental: (§1) IC50 analysis was performed for selected fused heterobicyclic 2-aryl or 2-heteroarylthiazolyl compounds that were tested on HCT116 cells and Securin “knock out” cell lines.
(§2) Cell Culture—HCT116 and securin “knock out” cells. HCT116 and securin “knock out” cells (D8 and F3) were grown in RPMI+5% fetal bovine serum and gentamycin. They were maintained in a humidified 37° C. incubator with 5% CO2. Since the securin “knock out” cells have active chromosomal instability, cells were used at a low passage number of 2-13 passages. At or before passage 13 a new vial of cells was thawed and used for the screen. Cell seeding—HCT116 cells and securin “knock out” cells were trypsinized and suspenended in RPMI+5% FBS at a density of 27,000 cells/mL. HCT116 and securin “knock out” cells were seeded separately in wells of a 96-well plate (Falcon Cat # 35-3872) at a cell density of 4000 cells per well. Cells were seeded in 150 μL of RPMI media containing 5% FBS and gentamycin. Cell seeding was performed under aseptic conditions. Cells were allowed to attach and grow overnight in a humidified 37° C. incubator.
(§3) Compound Dilution and Dispensation. A series of stock solutions, 10 mg/ml of 2-aryl- or 2-heteroarylthiazolyl compounds to be tested, were brought to room temperature. The compounds were diluted 1:50 in RPMI+5% FBS (Highest concentration 200 μg/mL). The compounds were then serially diluted 1:3 across a deep-well titration plate resulting in final concentrations in the plate of 200, 66.7, 22.2, 7.4, 2.4, 0.8 0.27, 0.091, 0.03, 0.01, and 0.0034 μg/mL with one well left without a compound. 50 μL of this dilution series was added to the 150 μL of cells to result in a final concentration of compound in with the cells of 50, 16.6, 5.5, 1.8, 0.6, 0.2, 0.068, 0.023, 0.0076, 0.0025, and 0.00084 μg/mL. The dilution and addition of compounds to the plates is performed using a Multimek 96 Robot (Beckman Coulter).
(§4) Incubation and analysis. After dosing, the cells in the 96 well plates were returned to the humidified 37° C. incubator. The compounds remained on the cells for 5 days. After 5 days, the cells were fixed to the plates with the addition of 50 μL of 50% (vol/vol) Trichloro Acetic Acid ([…]). The cells were fixed at 4° C. for 1 hour. The plates were washed 5 times in distilled water and allowed to dry. The cells were stained with 0.4% sulforhodamine B (Sigma) in 1% acetic acid. The cells were stained for 15 minutes at room temperature. The plates were then washed 3 times in 1% acetic acid. The plates were dried and the dye was solubilized in 10 mM Tris at pH 8.0. The plates were read on the Absorbence 560 setting on a Victor^2 V Model 1420 Multilabel HTS counter (Perkin Elmer).
(§5) Analysis of Results—IC50 data. Absorbence data was read off of the Victor and was converted to a percentage of the control (untreated) values. IC50 values were graphed and the point at which a 50% inhibition of the control level was determined. […] If the model was not able to determine an IC50, the IC50 was assigned to the lowest concentration that gives a 50% or greater decrease in absorbence compared to control levels. If the calculated IC50 value for a cell line exceeds the top concentration for the assay (typically 50 μg/mL), the assay was scored as >50.

[2] = test system: securin "knock out" cells D8 (Securin−/−); assay: Growth inhibition of securin knock out cells D8 (SRB, 5 days); format: cell-based; conditions: for IC50: 120 h, securin knock out D8 cells, 5 days, SRB; for Selectivity Ratio D8: IC50 HCT116 / IC50 securin KO D8
Experimental: as §1, §2, §3, §4, §5
(§6) Selectivity Ratio. The Selectivity Ratio is the ratio of IC50s between the parent cell line and the knock out cell line and is always a positive number and is typically an integer.

[3] = test system: securin "knock out" cells F3 (Securin−/−); assay: Growth inhibition of securin knock out cells F3 (SRB, 5 days); format: cell-based; conditions: for IC50: 120 h, securin knock out F3 cells, 5 days, SRB; for Selectivity Ratio F3: IC50 HCT116 / IC50 securin KO F3
Experimental: as §1, §2, §3, §4, §5, §6

[4] = test system: xenografts of a human breast carcinoma cell line (MDA-MB-361); assay: In-vivo activity in tumor xenografts
Experimental: Selected fused heterobicyclic 2-aryl- or 2-heteroarylthiazolyl compounds of formula I were tested for their activity in a securin parental cell line (HCT116 FB) and a securin knockout (KO) cell line. […] The in-vivo activity of selected fused heterobicyclic 2-arylarylthiazolyl compounds of formula I was studied in cells growing as xenografts in athymic (nude) mice. The effect of Examples 5-7 and 10 was studied in xenografts of a human breast carcinoma cell line (MDA-MB-361).
In-vivo Activity in Tumor Xenografts. The effectiveness of Examples 5-7 versus Vincristine at controlling tumor growth was studied and the results are summarized in Table 2 and FIG. 1. The 2-arylthiazolyl compounds were formulated 0.5% Methocel™ (methylcellulose) and 0.4% Tween 80™ (polysorbate-80 and oleic acid) and administered daily orally (PO), by gavage or intraperiotenially (IP) by syringe. Tumor mass [(length×width^2)/2] was determined every 7 days. Inhibition of tumor growth was calculated relative to conventional (vehicle treated) controls.

[5] = 20 mg/kg/dose PO, days 1 through 20
[6] = 50 mg/kg/dose PO, days 1 through 20
[7] = 0.8 mg/kg/dose IP, days 1, 5 and 9

Compound | IC50 [1] [µM] | IC50 [2] [µM] | Selectivity Ratio D8 [2] | IC50 [3] [µM] | Selectivity Ratio F3 [3] | further results
CN(C)c1ccc(-c2nc3c(s2)C(O)CNC3)cc1 (racemic) [Example 2, 2-(4-dimethylamino-phenyl)-4,5,6,7-tetrahydro[1,3]thiazolo[4,5-c]pyridin-7-ol] | 86.4 | 0.931 | 93 | 1.28 | 68 | 
OCc1cc(N2CCCC2)ccc1-c1nc2c(s1)C(O)CNC2 (racemic) [Example 10, (7R,7S)-2-(2-hydroxymethyl-4-pyrrolidin-1-yl-phenyl)-4,5,6,7-tetrahydro[1,3]thiazolo[4,5-c]pyridin-7-ol] | 80.6 | 0.0808 | 998 | 0.0944 | 854 | selectivity ratio (IC50 HCT116 FB/IC50 securin KO), in words [2]: high selectivity ratio
OC1CCCc2nc(-c3ccc(N4CCCC4)cc3)sc21 (centres unmarked) [2-(4-pyrrolidiny-1-ylphenyl)-4,5,6,7-tetrahydro-1,3-benzothiazol-7-ol, reference compound] |  |  |  |  |  | S/T = # of Survivors/# of Treated on Day +21 post tumor staging [4, 5]: 10/10; % T/C Day 7 [4, 5]: 101%; Relative Tumor Growth Day 7 [4, 5]: 1.67; % T/C Day 14 [4, 5]: 109%; Relative Tumor Growth Day 14 [4, 5]: 5.48; % T/C Day 21 [4, 5]: 132%; Relative Tumor Growth Day 21 [4, 5]: 12.07; S/T = # of Survivors/# of Treated on Day +21 post tumor staging [4, 6]: 10/10; % T/C Day 7 [4, 6]: 95%; Relative Tumor Growth Day 7 [4, 6]: 1.57; % T/C Day 14 [4, 6]: 78%; Relative Tumor Growth Day 14 [4, 6]: 3.93; % T/C Day 21 [4, 6]: 95%; Relative Tumor Growth Day 21 [4, 6]: 8.73
CN1Cc2nc(-c3ccc(N(C)C)cc3)sc2C(O)C1 (centres unmarked) [Example 1, 2-(4-dimethylamino-phenyl)-5-methyl-4,5,6,7-tetrahydro[1,3]thiazolo[4,5-c]pyridine-7-ol] | 23.9 | 2.48 | 10 | 3.07 | 8 | 
CN(C)c1ccc(-c2nc3c(s2)[C@H](O)CNC3)cc1 [Example 3, (R)-2-(4-dimethylamino-phenyl)-4,5,6,7-tetrahydro[1,3]thiazolo[4,5-c]pyridin-7-ol] | 66.4 | 0.395 | 168 | 0.555 | 120 | 
CN(C)c1ccc(-c2nc3c(s2)[C@@H](O)CNC3)cc1 [Example 4, (S)-2-(4-dimethylamino-phenyl)-4,5,6,7-tetrahydro[1,3]thiazolo[4,5-c]pyridin-7-ol] | 169 | 2.19 | 77 | 3.39 | 50 | 
CN(C)c1ccc(-c2nc3c(s2)C(O)CNC3)c(CO)c1 (centres unmarked) [Example 8, 2-(2-hydroxymethyl-4-dimethylamino-phenyl)-4,5,6,7-tetrahydro[1,3]thiazolo[4,5-c]pyridine-7-ol] | 100 | 0.0989 | 1011 | 0.107 | 936 | 
COC(=O)c1cc(N(C)C)ccc1-c1nc2c(s1)C(O)CNC2 (centres unmarked) [Example 9, methyl 5-(dimethylamino)-2-(7-hydroxy-4,5,6,7-tetrahydro[1,3]thiazolo[4,5-c]pyridin-2-yl)benzoate] | 100 | 0.53 | 189 | 0.67 | 149 | 
OCc1cc(N2CCCC2)ccc1-c1nc2c(s1)[C@H](O)CNC2 [Example 11, (7R)-2-(2-hydroxymethyl-4-pyrrolidin-1-yl-phenyl)-4,5,6,7-tetrahydro[1,3]thiazolo[4,5-c]pyridin-7-ol] | 91.4 | 0.0406 | 2251 | 0.0483 | 1892 | 
COC(=O)c1cc(N2CCCC2)ccc1-c1nc2c(s1)C(O)CNC2 (centres unmarked) [Example 13, Methyl 5-(4-pyrrolidin-1-yl)-2-(7-hydroxy-4,5,6,7-tetrahydro[1,3]thiazolo[4,5-c]pyridin-2-yl)benzoate] | 59.2 | 0.342 | 173 | 0.516 | 115 | 
Nc1cc(N2CCCC2)ccc1-c1nc2c(s1)C(O)CNC2 (centres unmarked) [Example 14, 2-(2-amino-4-pyrrolidin-1-yl-phenyl)-4,5,6,7-tetrahydro[1,3]thiazolo[4,5-c]pyridin-7-ol] | 48.1 | 0.0379 | 1269 | 0.0486 | 990 | 
O=[N+]([O-])c1cc(N2CCCC2)ccc1-c1nc2c(s1)C(O)CNC2 (centres unmarked) [Example 15, 2-(2-nitro-4-pyrrolidin-1-yl-phenyl)-4,5,6,7-tetrahydro[1,3]thiazolo[4,5-c]pyridin-7-ol] | 28.4 | 2.95 | 10 | 4.6 | 6 | 
CN(C)c1ccc(-c2nc3c(s2)C(O)COC3)cc1Br (centres unmarked) [Example 16, 2-[3-bromo-4-(dimethylamino)phenyl]-6,7-dihydro-4H-pyrano[3,4-d][1,3]thiazol-7-ol] | 41.6 | 14.3 | 3 | 15.2 | 3 | 
CN(C)c1ccc(-c2nc3c(s2)C(O)COC3)cc1 (centres unmarked) [Example 17, 2-[4-(dimethylamino)phenyl]-6,7-dihydro-4H-pyrano[3,4-d][1,3]thiazol-7-ol] | 51.1 | 1.12 | 46 | 1.53 | 33 | 
CC[C@]1(O)C[C@H]2CN(CCc3c([nH]c4ccccc34)[C@@](C(=O)OC)(c3cc4c(cc3OC)N(C=O)[C@H]3[C@@](O)(C(=O)OC)[C@H](OC(C)=O)[C@]5(CC)C=CCN6CC[C@]43[C@@H]65)C2)C1 [Vincristine, reference compound] |  |  |  |  |  | % T/C Day 7 [4, 7]: 80%; Relative Tumor Growth Day 7 [4, 7]: 1.33; % T/C Day 14 [4, 7]: 43%; Relative Tumor Growth Day 14 [4, 7]: 2.14; % T/C Day 21 [4, 7]: 58%; Relative Tumor Growth Day 21 [4, 7]: 5.29
